{"source": "patent US11691980B2", "about": "“Liphagal analog and multi-targeted kinase inhibitor containing liphagal or analog thereof” (TOHOKU UNIVERSITY, priority 2017, dated 2023)", "assay_in_all_cases": "mobility shift assay", "type_in_all_cases": "biochemical", "key": {"[1]": {"target": "PIK3CA/PIK3R1 (Homo sapiens, UniProt P42336)", "sequence (P42336 whole entry)": "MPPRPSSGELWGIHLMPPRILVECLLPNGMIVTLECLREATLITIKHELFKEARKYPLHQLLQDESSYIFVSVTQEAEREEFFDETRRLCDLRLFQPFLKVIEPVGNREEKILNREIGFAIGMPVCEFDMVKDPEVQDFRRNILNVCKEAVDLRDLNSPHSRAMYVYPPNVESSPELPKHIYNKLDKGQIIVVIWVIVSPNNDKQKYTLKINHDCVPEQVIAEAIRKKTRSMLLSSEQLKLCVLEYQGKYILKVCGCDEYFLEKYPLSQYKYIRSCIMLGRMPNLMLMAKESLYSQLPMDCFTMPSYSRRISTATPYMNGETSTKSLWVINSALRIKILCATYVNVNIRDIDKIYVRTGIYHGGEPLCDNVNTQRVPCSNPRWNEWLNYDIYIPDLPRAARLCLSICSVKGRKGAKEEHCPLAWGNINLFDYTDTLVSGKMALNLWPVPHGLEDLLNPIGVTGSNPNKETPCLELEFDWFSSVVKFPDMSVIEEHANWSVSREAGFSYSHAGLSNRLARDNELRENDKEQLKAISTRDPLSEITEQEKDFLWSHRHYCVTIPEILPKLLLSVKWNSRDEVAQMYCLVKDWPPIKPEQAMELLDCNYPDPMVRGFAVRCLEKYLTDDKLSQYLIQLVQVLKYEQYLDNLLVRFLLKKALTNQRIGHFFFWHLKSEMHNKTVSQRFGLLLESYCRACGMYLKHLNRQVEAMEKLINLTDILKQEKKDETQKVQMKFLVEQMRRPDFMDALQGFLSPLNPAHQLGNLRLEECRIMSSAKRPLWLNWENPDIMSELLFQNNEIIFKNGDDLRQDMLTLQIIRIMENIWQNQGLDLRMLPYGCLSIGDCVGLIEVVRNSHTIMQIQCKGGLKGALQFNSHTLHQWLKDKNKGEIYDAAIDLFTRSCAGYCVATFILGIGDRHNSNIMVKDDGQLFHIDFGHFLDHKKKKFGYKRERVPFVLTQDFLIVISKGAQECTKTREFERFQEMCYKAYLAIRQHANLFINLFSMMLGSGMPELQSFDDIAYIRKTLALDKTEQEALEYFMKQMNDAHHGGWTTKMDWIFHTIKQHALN", "sequence (P27986 whole entry partner)": "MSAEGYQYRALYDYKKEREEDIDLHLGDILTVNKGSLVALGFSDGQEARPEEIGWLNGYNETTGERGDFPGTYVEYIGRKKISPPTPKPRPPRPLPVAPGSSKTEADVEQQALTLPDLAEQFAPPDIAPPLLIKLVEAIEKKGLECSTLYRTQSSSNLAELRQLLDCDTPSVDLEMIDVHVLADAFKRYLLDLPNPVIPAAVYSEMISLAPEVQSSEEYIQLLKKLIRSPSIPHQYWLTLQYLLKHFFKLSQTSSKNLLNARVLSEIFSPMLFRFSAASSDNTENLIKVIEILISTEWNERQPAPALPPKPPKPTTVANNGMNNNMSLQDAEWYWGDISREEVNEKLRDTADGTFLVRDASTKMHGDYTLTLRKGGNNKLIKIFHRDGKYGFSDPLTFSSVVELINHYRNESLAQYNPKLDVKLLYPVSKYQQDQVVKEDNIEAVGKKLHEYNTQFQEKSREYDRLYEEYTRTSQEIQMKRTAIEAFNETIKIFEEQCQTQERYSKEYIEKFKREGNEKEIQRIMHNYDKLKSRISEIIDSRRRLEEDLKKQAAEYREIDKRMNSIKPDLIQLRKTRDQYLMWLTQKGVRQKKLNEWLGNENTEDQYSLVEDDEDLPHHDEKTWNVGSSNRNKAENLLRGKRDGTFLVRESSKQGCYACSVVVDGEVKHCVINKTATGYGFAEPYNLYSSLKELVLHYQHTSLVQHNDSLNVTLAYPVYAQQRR", "design": "purchased Carna Biosciences", "procedure": "LG-1 (liphgal) at 10 μM was assessed for its inhibitory activity against 313 kinds of kinases by mobility shift assay or IMAP Assay™ (Carna Biosciences). Specifically, the assessment was performed by the IMAP Assay™ (Carna Biosciences) for SPRK1, PLK2, PKR, PKN1, PEK, IRAK1, and EKKα among the 313 kinds of kinases, and the assessment was performed by the mobility shift assay for all the other kinases. Inhibitory activity (% inhibition) against each kinase is represented by the size of a bubble on a protein kinase phylogenetic tree of FIG. 2."}, "[2]": {"target": "T1, MOS_Cascade (Homo sapiens, UniProt P00540)", "T1 construct": "purchased Carna Biosciences"}, "[3]": {"target": "T2, SRM (Homo sapiens, UniProt Q9H3Y6)", "T2 construct": "purchased Carna Biosciences"}, "[4]": {"target": "T3, ALK(F1174L) (Homo sapiens, UniProt Q9UM73, F1174L)", "T3 construct": "purchased Carna Biosciences"}, "[5]": {"target": "T4, MAP2K3_Cascade (Homo sapiens, UniProt P46734)", "T4 construct": "purchased Carna Biosciences"}, "[6]": {"target": "T5, PHKG2 (Homo sapiens, UniProt P15735)", "T5 construct": "purchased Carna Biosciences"}, "[7]": {"target": "T6, RET(M918T) (Homo sapiens, UniProt P07949, M918T)", "T6 construct": "purchased Carna Biosciences"}, "[8]": {"system": "ABL(E265K)", "details": "10 μM"}, "[9]": {"target": "T7, MAP2K7_Cascade (Homo sapiens, UniProt O14733)", "T7 construct": "purchased Carna Biosciences"}, "[10]": {"target": "T8, LYNb (Homo sapiens, UniProt P07948)", "T8 construct": "purchased Carna Biosciences", "T8 sequence (P07948 1-491 isoform P07948-2)": "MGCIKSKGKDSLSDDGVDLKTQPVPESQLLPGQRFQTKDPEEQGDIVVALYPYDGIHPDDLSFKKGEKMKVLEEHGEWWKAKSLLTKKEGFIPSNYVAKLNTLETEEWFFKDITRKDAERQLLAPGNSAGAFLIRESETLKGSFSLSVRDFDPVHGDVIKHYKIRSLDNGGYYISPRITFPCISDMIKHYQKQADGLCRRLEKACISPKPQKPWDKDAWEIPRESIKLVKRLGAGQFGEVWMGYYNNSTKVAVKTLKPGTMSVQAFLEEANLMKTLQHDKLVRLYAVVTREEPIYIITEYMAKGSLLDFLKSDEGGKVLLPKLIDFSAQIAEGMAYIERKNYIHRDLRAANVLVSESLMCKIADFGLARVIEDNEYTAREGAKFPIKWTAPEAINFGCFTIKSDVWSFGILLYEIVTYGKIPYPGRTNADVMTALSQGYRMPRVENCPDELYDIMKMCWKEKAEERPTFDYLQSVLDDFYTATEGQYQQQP"}, "[11]": {"target": "T9, Erk1 (Homo sapiens, UniProt P27361)", "T9 construct": "purchased Carna Biosciences"}, "[12]": {"target": "T10, EPHA7 (Homo sapiens, UniProt Q15375)", "T10 construct": "purchased Carna Biosciences"}, "[13]": {"target": "T11, PDGF Ru(DB42V) (Homo sapiens, UniProt P16234, D842V)", "T11 construct": "purchased Carna Biosciences"}, "[14]": {"target": "T12, p38γ (Homo sapiens, UniProt P53778)", "T12 construct": "purchased Carna Biosciences"}, "[15]": {"target": "T13, EFHB2 (Homo sapiens, UniProt P29323)", "T13 construct": "purchased Carna Biosciences", "T13 sequence (P29323 19-1055)": "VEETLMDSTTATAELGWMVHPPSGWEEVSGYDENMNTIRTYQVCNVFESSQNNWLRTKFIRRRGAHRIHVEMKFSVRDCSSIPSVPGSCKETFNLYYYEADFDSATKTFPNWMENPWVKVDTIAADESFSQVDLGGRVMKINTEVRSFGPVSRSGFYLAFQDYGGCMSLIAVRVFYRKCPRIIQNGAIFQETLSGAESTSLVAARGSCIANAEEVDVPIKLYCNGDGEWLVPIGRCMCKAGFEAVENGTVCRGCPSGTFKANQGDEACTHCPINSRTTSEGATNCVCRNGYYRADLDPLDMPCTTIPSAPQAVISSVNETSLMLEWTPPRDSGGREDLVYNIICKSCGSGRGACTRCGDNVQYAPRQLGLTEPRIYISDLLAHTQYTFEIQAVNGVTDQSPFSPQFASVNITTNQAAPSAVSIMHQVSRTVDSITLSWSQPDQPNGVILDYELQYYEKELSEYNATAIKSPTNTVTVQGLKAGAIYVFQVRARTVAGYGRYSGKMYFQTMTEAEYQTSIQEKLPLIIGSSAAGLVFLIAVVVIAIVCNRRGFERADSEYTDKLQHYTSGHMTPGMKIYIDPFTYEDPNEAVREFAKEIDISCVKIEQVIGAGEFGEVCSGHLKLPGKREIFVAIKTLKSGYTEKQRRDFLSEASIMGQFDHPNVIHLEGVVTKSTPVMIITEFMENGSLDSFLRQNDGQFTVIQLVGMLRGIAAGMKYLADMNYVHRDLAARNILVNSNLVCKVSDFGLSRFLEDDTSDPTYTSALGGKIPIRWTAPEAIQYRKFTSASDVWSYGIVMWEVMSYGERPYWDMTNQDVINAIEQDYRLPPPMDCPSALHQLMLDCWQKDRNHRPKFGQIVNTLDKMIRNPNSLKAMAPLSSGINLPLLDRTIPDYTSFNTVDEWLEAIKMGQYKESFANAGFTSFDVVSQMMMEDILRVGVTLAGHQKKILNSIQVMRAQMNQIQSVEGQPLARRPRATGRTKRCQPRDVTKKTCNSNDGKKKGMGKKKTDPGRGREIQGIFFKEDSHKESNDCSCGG"}, "[16]": {"target": "T14, BTK (Homo sapiens, UniProt Q06187)", "T14 construct": "purchased Carna Biosciences"}, "[17]": {"target": "T15, ITK (Homo sapiens, UniProt Q08881)", "T15 construct": "purchased Carna Biosciences"}, "[18]": {"target": "T16, MET(M125DT) (Homo sapiens, UniProt P08581, M1250T)", "T16 construct": "purchased Carna Biosciences", "T16 sequence (P08581 956-1390 M1250T limits assumed)": "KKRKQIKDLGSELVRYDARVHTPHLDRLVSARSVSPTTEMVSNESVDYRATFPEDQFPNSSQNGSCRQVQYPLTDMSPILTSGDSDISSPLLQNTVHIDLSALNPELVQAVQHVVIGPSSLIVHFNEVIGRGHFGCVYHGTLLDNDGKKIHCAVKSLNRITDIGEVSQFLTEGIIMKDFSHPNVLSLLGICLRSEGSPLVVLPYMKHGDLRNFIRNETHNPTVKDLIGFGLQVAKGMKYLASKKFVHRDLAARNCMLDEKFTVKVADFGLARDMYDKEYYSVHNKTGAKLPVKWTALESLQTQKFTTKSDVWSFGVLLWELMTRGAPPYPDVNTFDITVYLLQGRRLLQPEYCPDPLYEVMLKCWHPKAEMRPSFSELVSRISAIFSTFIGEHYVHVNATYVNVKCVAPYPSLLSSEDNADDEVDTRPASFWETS"}, "[19]": {"target": "T17, PKACβ (Homo sapiens, UniProt P22694)", "T17 construct": "purchased Carna Biosciences"}, "[20]": {"target": "T18, RSK1 (Homo sapiens, UniProt Q15418)", "T18 construct": "purchased Carna Biosciences"}, "[21]": {"target": "T19, ROS (Homo sapiens, UniProt P08922)", "T19 construct": "purchased Carna Biosciences"}, "[22]": {"target": "T20, MAPKAPK3 (Homo sapiens, UniProt Q16644)", "T20 construct": "purchased Carna Biosciences"}, "[23]": {"target": "T21, TRKC (Homo sapiens, UniProt Q16288)", "T21 construct": "purchased Carna Biosciences"}, "[24]": {"target": "T22, SGK2 (Homo sapiens, UniProt Q9HBY8)", "T22 construct": "purchased Carna Biosciences"}, "[25]": {"target": "T23, PKCα (Homo sapiens, UniProt P17252)", "T23 construct": "purchased Carna Biosciences"}, "[26]": {"target": "T24, AKT2 (Homo sapiens, UniProt P31751)", "T24 construct": "purchased Carna Biosciences"}, "[27]": {"target": "T25, RON (Homo sapiens, UniProt Q04912)", "T25 construct": "purchased Carna Biosciences"}, "[28]": {"target": "T26, CDC7/ASK (Homo sapiens, UniProt O00311)", "T26 construct": "purchased Carna Biosciences"}, "[29]": {"target": "T27, PAK1 (Homo sapiens, UniProt Q13153)", "T27 construct": "purchased Carna Biosciences"}, "[30]": {"target": "T28, PDGFRα(V561D) (Homo sapiens, UniProt P16234, V561D)", "T28 construct": "purchased Carna Biosciences"}, "[31]": {"system": "MAP3K4_Cascade", "details": "10 μM"}, "[32]": {"target": "T29, PDHK4 (Homo sapiens, UniProt Q16654)", "T29 construct": "purchased Carna Biosciences"}, "[33]": {"target": "T30, NEK6 (Homo sapiens, UniProt Q9HC98)", "T30 construct": "purchased Carna Biosciences"}, "[34]": {"target": "T31, MRCKα (Homo sapiens, UniProt Q5VT25)", "T31 construct": "purchased Carna Biosciences"}, "[35]": {"target": "T32, KIT(T670I) (Homo sapiens, UniProt P10721, T670I)", "T32 construct": "purchased Carna Biosciences"}, "[36]": {"target": "T33, PKCε (Homo sapiens, UniProt Q02156)", "T33 construct": "purchased Carna Biosciences", "T33 sequence (Q02156 whole entry)": "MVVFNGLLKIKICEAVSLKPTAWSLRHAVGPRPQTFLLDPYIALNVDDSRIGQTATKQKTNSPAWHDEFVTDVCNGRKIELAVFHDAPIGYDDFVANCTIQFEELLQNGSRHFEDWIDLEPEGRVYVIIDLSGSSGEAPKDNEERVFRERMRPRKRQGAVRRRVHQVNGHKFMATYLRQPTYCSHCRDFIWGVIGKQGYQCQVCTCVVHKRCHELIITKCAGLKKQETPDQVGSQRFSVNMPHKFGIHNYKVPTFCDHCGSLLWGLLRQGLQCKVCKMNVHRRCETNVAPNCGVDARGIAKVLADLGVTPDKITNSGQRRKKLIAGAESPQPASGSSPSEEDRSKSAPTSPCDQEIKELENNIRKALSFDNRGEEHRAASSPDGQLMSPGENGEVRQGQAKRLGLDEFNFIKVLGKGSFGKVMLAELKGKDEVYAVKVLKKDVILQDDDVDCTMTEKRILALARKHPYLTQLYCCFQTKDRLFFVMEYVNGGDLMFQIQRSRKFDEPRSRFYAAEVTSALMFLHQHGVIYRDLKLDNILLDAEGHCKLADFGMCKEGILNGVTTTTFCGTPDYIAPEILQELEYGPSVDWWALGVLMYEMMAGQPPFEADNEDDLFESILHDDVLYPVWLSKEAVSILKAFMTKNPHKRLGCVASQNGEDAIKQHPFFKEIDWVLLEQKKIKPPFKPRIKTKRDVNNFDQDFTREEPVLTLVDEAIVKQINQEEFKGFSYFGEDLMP"}, "[37]": {"target": "T34, JNK1 (Homo sapiens, UniProt P45983)", "T34 construct": "purchased Carna Biosciences", "T34 sequence (P45983 whole entry)": "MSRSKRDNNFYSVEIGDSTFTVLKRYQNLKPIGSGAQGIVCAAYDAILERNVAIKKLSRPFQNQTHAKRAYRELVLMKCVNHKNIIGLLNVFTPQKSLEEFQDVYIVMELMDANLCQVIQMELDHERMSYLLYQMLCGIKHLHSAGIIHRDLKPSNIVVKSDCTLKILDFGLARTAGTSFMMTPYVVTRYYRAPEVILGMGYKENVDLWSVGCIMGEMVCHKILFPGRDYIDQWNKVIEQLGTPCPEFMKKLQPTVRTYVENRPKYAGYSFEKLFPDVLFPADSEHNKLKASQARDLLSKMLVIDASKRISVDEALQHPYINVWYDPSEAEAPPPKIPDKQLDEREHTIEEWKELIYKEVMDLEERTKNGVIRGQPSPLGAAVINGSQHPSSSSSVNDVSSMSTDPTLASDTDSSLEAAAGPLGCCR"}, "[38]": {"target": "T35, PLK3 (Homo sapiens, UniProt Q9H4B4)", "T35 construct": "purchased Carna Biosciences"}}, "data": [{"smiles": "C[C@@H]1CC[C@H]2C(C)(C)CCC[C@]2(C)c2c1oc1c(C=O)c(O)c(O)cc21", "note": "[LG-1, liphagal]", "values": [{"measurement": "inhibition at 10 µM", "setting": "[1]", "value": 83.4, "unit": "%"}, {"measurement": "inhibition at 10 µM", "setting": "[2]", "value": 29.5, "unit": "%"}, {"measurement": "inhibition at 10 µM", "setting": "[3]", "value": 19, "unit": "%"}, {"measurement": "inhibition at 10 µM", "setting": "[4]", "value": -1.8, "unit": "%"}, {"measurement": "inhibition at 10 µM", "setting": "[5]", "value": 25.6, "unit": "%"}, {"measurement": "inhibition at 10 µM", "setting": "[6]", "value": 1.5, "unit": "%"}, {"measurement": "inhibition at 10 µM", "setting": "[7]", "value": 5.9, "unit": "%"}, {"measurement": "% Inhibition", "setting": "[8]", "value": "−3.3", "unit": "%"}, {"measurement": "inhibition at 10 µM", "setting": "[9]", "value": 5.5, "unit": "%"}, {"measurement": "inhibition at 10 µM", "setting": "[10]", "value": 2.8, "unit": "%"}, {"measurement": "inhibition at 10 µM", "setting": "[11]", "value": -4.4, "unit": "%"}, {"measurement": "inhibition at 10 µM", "setting": "[12]", "value": 8.7, "unit": "%"}, {"measurement": "inhibition at 10 µM", "setting": "[13]", "value": 1.5, "unit": "%"}, {"measurement": "inhibition at 10 µM", "setting": "[14]", "value": -5.6, "unit": "%"}, {"measurement": "inhibition at 10 µM", "setting": "[15]", "value": 5.4, "unit": "%"}, {"measurement": "inhibition at 10 µM", "setting": "[16]", "value": 10.3, "unit": "%"}, {"measurement": "inhibition at 10 µM", "setting": "[17]", "value": -6.5, "unit": "%"}, {"measurement": "inhibition at 10 µM", "setting": "[18]", "value": -0.2, "unit": "%"}, {"measurement": "inhibition at 10 µM", "setting": "[19]", "value": 13.9, "unit": "%"}, {"measurement": "inhibition at 10 µM", "setting": "[20]", "value": 34.3, "unit": "%"}, {"measurement": "inhibition at 10 µM", "setting": "[21]", "value": 8.6, "unit": "%"}, {"measurement": "inhibition at 10 µM", "setting": "[22]", "value": 4.8, "unit": "%"}, {"measurement": "inhibition at 10 µM", "setting": "[23]", "value": 11.3, "unit": "%"}, {"measurement": "inhibition at 10 µM", "setting": "[24]", "value": 9.3, "unit": "%"}, {"measurement": "inhibition at 10 µM", "setting": "[25]", "value": -8, "unit": "%"}, {"measurement": "inhibition at 10 µM", "setting": "[26]", "value": 6.2, "unit": "%"}, {"measurement": "inhibition at 10 µM", "setting": "[27]", "value": 7.8, "unit": "%"}, {"measurement": "inhibition at 10 µM", "setting": "[28]", "value": 26.2, "unit": "%"}, {"measurement": "inhibition at 10 µM", "setting": "[29]", "value": 0.5, "unit": "%"}, {"measurement": "inhibition at 10 µM", "setting": "[30]", "value": 7.1, "unit": "%"}, {"measurement": "% Inhibition", "setting": "[31]", "value": 62.9, "unit": "%"}, {"measurement": "inhibition at 10 µM", "setting": "[32]", "value": 7.4, "unit": "%"}, {"measurement": "inhibition at 10 µM", "setting": "[33]", "value": 65.4, "unit": "%"}, {"measurement": "inhibition at 10 µM", "setting": "[34]", "value": 16, "unit": "%"}, {"measurement": "inhibition at 10 µM", "setting": "[35]", "value": 5.4, "unit": "%"}, {"measurement": "inhibition at 10 µM", "setting": "[36]", "value": -46.9, "unit": "%"}, {"measurement": "inhibition at 10 µM", "setting": "[37]", "value": -10.8, "unit": "%"}, {"measurement": "inhibition at 10 µM", "setting": "[38]", "value": 31.1, "unit": "%"}]}]}
